Assays:
[1] = water solubility; type: physicochemical
[2] = solubility of the free base in solvents; type: physicochemical; conditions: free base form
Method: For example, acetone is needed to dissolve the free base at 50° C. […] HCl, phosphoric acid, tartaric acid, acetic acid, D-glucoronic acid and succinic acid were used to prepare pharmaceutically acceptable salts of compound 3. One crystalline form of compound 3 as a mono-succinate salt and five crystalline polymorphs of compound 3 as a hemi-succinate salt are provided in the Examples.

| Structure (SMILES) | water solubility (stated in words) [1] | solubility in THF, DMSO and DMF [2] | solubility in group 3 solvents, including water [2] | Solubility in water ([1]; free base, thermogravimeteric method) |
| --- | --- | --- | --- | --- |
| COc1ccc(-c2ccnc(Nc3ccc(S(=O)(=O)NCCCN(C)C)cc3)n2)cc1F.O=C(O)CCC(=O)O [Example 1, Mono-Succinate Salt of N-(3-(dimethylamino)propyl)-4-(4-(3-fluoro-4-methoxyphenyl)pyrimidin-2-ylamino)benzenesulfonamide] | water soluble |  |  |  |
| COc1ccc(-c2ccnc(Nc3ccc(S(=O)(=O)NCCCN(C)C)cc3)n2)cc1F [Compound 3, N-(3-(dimethylamino)propyl)-4-(4-(3-fluoro-4-methoxyphenyl)pyrimidin-2-ylamino)benzenesulfonamide] |  | high | low | not detectable |

Reference: US20080262008A1, “CRYSTALLINE FORMS AND POLYMORPHS OF N-(3-(DIMETHYLAMINO)PROPYL)-4-(4-(3-FLUORO-4-METHOXYPHENYL) PYRIMIDIN-2-YLAMINO) BENZENESULFONAMIDE AS SUCCINATE SALTS” (Wyeth, priority 2007, published 2008)
